# “And” between values parts separate entries of the source, which are not always exact repeats. Equal values may be shown once. Where a name gives a salt, the structure may show the parent alone. Read-outs that look alike come from different tables or passages of the source.
# Tests used:
# [1] = in vivo, po; cited from earlier work
# [2] = set-up: species or system SD rats; conditions: male, SD, rat, in vivo, po
# Description: 34.75 mg of nitazoxanide was added to 10 mL of 0.5% sodium carboxymethylcellulose solution, and the mixture was mixing homogeneously for later use; 41.67 mg of tizoxanide choline salt of formula (I) prepared in Example 2 was added to 10 mL of 0.5% sodium carboxymethylcellulose solution, and the mixture was mixed homogeneously for later use; 30 mg of tizoxanide was added to 5 mL of 0.5% sodium carboxymethylcellulose solution, followed by addition of 40% aqueous choline hydroxide solution, and the mixture was mixed homogeneously, and then added with 0.5% sodium carboxymethyl cellulose solution to a final volume of 10 mL to obtain a mixture of tizoxanide and choline for later use. […] Provided were male SD rats weighing 180 g to 220 g, 3 rats each group; all animals were fasted for 12 h prior to administration. The rats were separately administered intragastrically with the solution of the nitazoxanide, the solution of the tizoxanide choline salt of formula (I) or the mixture of tizoxanide and choline described above at a dose of 10 mL/kg each. […] The collected blood was added with sodium heparin for anticoagulation, followed by centrifugation to separate plasma, and the plasma was storing at −80° C. for determination. The content of tizoxanide in plasma was determined by LC-MS/MS (instrument: LC-MS/MS-19, TQ5500 Triple quad); internal Standard (IS) was tolbutamide; mass spectrum conditions: an electrospray ion source and a negative ion multiple reaction detection (Tizoxanide: […] ACQUITY UPLC CORTECS T3, 2.7 μm (2.1×100 mm); column temperature was 40° C.; flow rate was 0.6 mL/min. The pharmacokinetic parameters were calculated by utilizing WinNonlin according to the plasma concentration data at different time points. The results are shown in Table 1: […]
# [3] = tested on: influenza A virus mouse lung adaptive strain A/PR/8/34; type: in vivo, Kunming mice
# DHBV = assay: Evaluation of in vivo anti-hepatitis B virus effect (serum DHBV DNA, dot-blot hybridization); set-up: species or system sheld ducks (Tadorna); conditions: intragastric once daily
# Description: The sheld ducks (Tadorna) with vertical transmission infection and positive DHBV DNA were randomly grouped, 8 sheld ducks each group. […] Blood was collected intravenously prior to administration (T0) and 7 days (T7), 14 days (T14), 21 days (T21) and 28 days ([…]) after administration, and the serum was separated and frozen at -70° C. for determination. Determination of DHBV DNA content in serum by using dot-blot molecular hybridization was as follows: the duck serum described above was taken, spots were simultaneously formed on detection films for each batch, the change of the DHBV DNA level in the duck serum was determined, the DHBV DNA probe was labeled by ^32P according to the method of the instruction of the nick translation kit, and a duck serum dot-blot experiment was performed.
# [4] = 200 mg/kg active ingredient basis, T0 (prior to administration)
# [5] = 200 mg/kg active ingredient basis, T7 (7 days)
# [6] = 200 mg/kg active ingredient basis, T14 (14 days)
# [7] = 200 mg/kg active ingredient basis, T21 (21 days)
# [8] = 200 mg/kg active ingredient basis, T28 (28 days)
SMILES,original form of nitazoxanide in blood [1],AUC(0-t) [2] [ng·h/mL],AUC(0-∞) [2] [ng·h/mL],Cmax [2] [ng/mL],T1/2 [2] [h],Tmax [2] [h],"Survival rates ([3]; 50 mg/kg active ingredient basis, intragastric 2 times daily for 5 days, […], observed 14 days)","Survival rates ([3]; 100 mg/kg active ingredient basis, intragastric 2 times daily for 5 days, […], observed 14 days)",OD490 value (DHBV; [4]),OD490 value (DHBV; [5]),OD490 value (DHBV; [6]),OD490 value (DHBV; [7]),OD490 value (DHBV; [8]),"Survival rates ([3]; mouse, in vivo)","OD490 value (DHBV; 100 mg/kg active ingredient basis, T0 (prior to administration))","OD490 value (DHBV; 100 mg/kg active ingredient basis, T7 (7 days))","OD490 value (DHBV; 100 mg/kg active ingredient basis, T14 (14 days))","OD490 value (DHBV; 100 mg/kg active ingredient basis, T21 (21 days))","OD490 value (DHBV; 100 mg/kg active ingredient basis, T28 (28 days))"
"CC(=O)Oc1ccccc1C(=O)Nc1ncc([N+](=O)[O-])s1 [Nitazoxanide, o-N-(5-nitrothiazol-2-yl)carbamoyl-phenol-acetate, reference compound]",undetectable,1325.50,1327.91,380.55,0.65,2.00,2/10,7/10,1.67 ± 0.11,1.37 ± 0.27,1.19 ± 0.51,0.72 ± 0.38**ΔΔ,0.72 ± 0.48**ΔΔ,,,,,,
"O=C(Nc1ncc([N+](=O)[O-])s1)c1ccccc1O [Tizoxanide choline salt of formula (I), tizoxanide choline salt]",,2070.01,2280.30,837.16,2.53,0.25,,,0.96 ± 0.47,0.15 ± 0.08**ΔΔ,0.10 ± 0.05**ΔΔ,0.07 ± 0.04**ΔΔ,0.27 ± 0.17**ΔΔ,9/10 and 3/10,1.47 ± 0.20,0.43 ± 0.18**ΔΔ,0.39 ± 0.34**ΔΔ,0.34 ± 0.25**ΔΔ,0.53 ± 0.37**ΔΔ

# Reference: patent US12378210B2, “Pharmaceutical composition comprising tizoxanide and pharmaceutical use thereof” (BEIJING JUNKE HUAYUAN MED TECH CO., LTD., priority 2020, dated 2025)
